{
  "source": "patent US20080160617A1",
  "about": "“AGENT FOR INDUCING EMBRYONIC STEM CELL TO ECTODERMAL CELL, METHOD FOR OBTAINING THE SAME, AND USE OF THE SAME” (KYOWA HAKKO KOGYO CO., LTD., priority 2001, published 2008)",
  "key": {"embryonic stem cell": {"tested_on": "embryonic stem cell", "settings": "cited from earlier work"}, "ES cell EB5 [1]": {"tested_on": "ES cell EB5", "assay": "Nerve differentiation of ES cell EB5 by solution recovered from PA6 cell with polyanion-containing Hanks' balanced salt solution (SDIA activity)", "assay_type": "cell-based, mouse", "settings": "14 days", "experimental": "ES cell EB5 (H. Niwa et al., Nature Genet., 24, 372 (2000); obtained from Dr. Hitoshi Niwa at the Molecular Control Medical Science Course, Medical School, Osaka University) was used as the embryonic stem cell, and an MC3T3-G2/PA6 cell (H. Kodama et al., J. Cell Physiol., 112) 89 (1982), hereinafter referred to as “PA6 cell”) as the stromal cell, and the ES cell EB5 was cultured in accordance with the method described in Reference Example 1 and used in the test.\nCells of PA6 cultured to almost confluent state on a dish of 10 cm in diameter were washed twice with 10 ml of PBS(−) (manufactured by Invitrogen) and once with 10 ml of Hanks' balanced salt solution (manufactured by Invitrogen), 3 ml of Hanks' balanced salt solution containing from 0.001% (w/v) to 0.1% (w/v) of heparin (manufactured by Nacalai Tesque) was added thereto, the mixture was allowed to stand at 37° C. for 30 minutes, and the solution was recovered. The solution obtained was added to the PA6 on the 10 cm, dish washed in the same manner described above, the mixture was allowed to stand at 37° C. for 30 minutes in the same manner, and then the solution was recovered. This process was carried out on PA6 on the other 10 cm dish, and effect of the recovered solution ES cell was examined. In this case, a solution recovered in the same manner by using a heparin-free Hanks' balanced salt solution was used as a negative control.\nThe solution obtained in the above was mixed at a ratio of 1:2 with a solution containing the ES cell EB5 which had been adjusted to a single cell state in a serum-free medium by the method described in Reference Example 1, and the mixture was inoculated into a gelatin-coated plastic culture dish at a cell density of 1,250 cells/cm^2 and incubated at 37° C. for 14 days in a CO2 incubator in an atmosphere of 5% carbon dioxide.\nThe cells after the culturing were fixed by 4% paraformaldehyde solution and subjected to immune staining in accordance with the method described in Using Antibodies, Cold Spring Harbor Laboratory Press (1999), using an anti-NCAM antibody (manufactured by Chemicon) as a general nerve marker, an anti-class III β-tubulin antibody (manufactured by Babco) as a nerve-specific marker and an anti-nestin antibody (manufactured by Pharmingen) as a nerve precursor cell-specific marker.\nCompounds other than heparin with which the SDIA activity factor can be recovered were searched by the method for recovering an SDIA activity factor described in Example 1. Using a Hanks' balanced salt solution containing, instead of heparin, 0.001% (w/v) dextran sulfate (manufactured by Sigma), 0.001% (w/v) polyvinyl sulfate (manufactured by Sigma), 0.001% (w/v) polystyrene sulfonate (manufactured by Tosoh) 0.1% (w/v) carboxymethylcellulose (manufactured by, Wako Pure Chemical Industries) or 0.1% (w/v) hyaluronic acid (manufactured by Kibun Chemical Foods), respective solutions were recovered by the method described in Example 1 to examine their effects on the ES cell. In this case, a solution recovered in the same manner by using a heparin-free Hanks' balanced salt solution was used as a negative control."}, "ES cell EB5 [2]": {"tested_on": "ES cell EB5", "assay": "Heparin treatment of PA6 feeder cell before paraformaldehyde fixation, nerve differentiation of ES cell EB5", "assay_type": "cell-based, mouse", "settings": "PA6 cell cultured 2 days in medium containing 200 ng/ml heparin, then paraformaldehyde-fixed; 8 days coculture", "experimental": "According to the method described in Reference Example 3, the ES cell EB5 was cultured for 8 days in the serum-free medium without BMP4 by using the paraformaldehyde-fixed PA6 cell as a feeder cell. Also, the case when the PA6 cell was cultured in a medium containing heparin (GIBCO BRL) (hereinafter referred to as “heparin treatment”) was compared with the case when culturing in a heparin-free medium. That is, dishes in which the PA6 cell proliferated to almost confluent on a 3 cm tissue culture dish was cultured for 2 days in a medium containing 200 ng/ml of heparin and dishes in which it was cultured for 2 days in a heparin-free medium were prepared, washed twice with PBS(−) and subjected to paraformaldehyde fixation, and the ES cell EB5 was inoculated onto the paraformaldehyde-fixed PA6 cell at a density of 200 cells/dish, the medium was exchanged with a fresh medium on the 4th, 6th and 7th days, and then the cells were cultured at 37° C. for 8 days in a stream of 5% carbon dioxide in a CO2 incubator.\nEight days after coculturing, the cells were fixed according to the method described in Reference Example 1, and the colonies formed as a result of the coculturing of the ES cell EB5 with PA6 cell were immunologically stained with the anti-NCAM antibody, anti-tubulin antibody and anti-nestin antibody."}, "[3]": {"settings": "solution recovered from PA6 cell with Hanks' solution containing 0.1% (w/v) polyanion instead of heparin"}, "[4]": {"settings": "solution recovered from PA6 cell with Hanks' solution containing 0.001% (w/v) polyanion instead of heparin"}},
  "data": [
    {"substance": "EGF: epidermal growth factor", "values": [
      {"measurement": "SDIA-like activity to induce differentiation of embryonic stem cell into ectoderm system cells", "setting": "embryonic stem cell", "result": "no SDIA-like activity"}
    ]},
    {"substance": "HGF: hepatocyte growth factor", "values": [
      {"measurement": "SDIA-like activity to induce differentiation of embryonic stem cell into ectoderm system cells", "setting": "embryonic stem cell", "result": "no SDIA-like activity"}
    ]},
    {"substance": "LIF: leukemia inhibitory factor", "values": [
      {"measurement": "SDIA-like activity to induce differentiation of embryonic stem cell into ectoderm system cells", "setting": "embryonic stem cell", "result": "no SDIA-like activity"}
    ]},
    {"substance": "PDGF", "values": [
      {"measurement": "SDIA-like activity to induce differentiation of embryonic stem cell into ectoderm system cells", "setting": "embryonic stem cell", "result": "no SDIA-like activity"}
    ]},
    {"substance": "bFGF: basic fibroblast growth factor", "values": [
      {"measurement": "SDIA-like activity to induce differentiation of embryonic stem cell into ectoderm system cells", "setting": "embryonic stem cell", "result": "no SDIA-like activity"}
    ]},
    {"substance": "carboxymethylcellulose", "values": [
      {"measurement": "ratio of colonies expressing class III β-tubulin", "setting": "ES cell EB5 [1]; [3]", "result": 34.6, "unit": "%"}
    ]},
    {"substance": "dextran sulfate", "values": [
      {"measurement": "ratio of colonies expressing class III β-tubulin", "setting": "ES cell EB5 [1]; [4]", "result": 67.2, "unit": "%"}
    ]},
    {"substance": "heparin", "values": [
      {"measurement": "ratio of colonies expressing class III β-tubulin", "setting": "ES cell EB5 [1]; solution recovered from PA6 cell with Hanks' balanced salt solution containing 0.001% (w/v) heparin, mixed 1:2 with ES cell EB5", "result": 68, "unit": "%"},
      {"measurement": "differentiation of ES cell into nerve cell on heparin-treated PA6 feeder cell", "setting": "ES cell EB5 [2]", "result": "significant differentiation of ES cell into nerve cell was not observed"}
    ]},
    {"substance": "hyaluronic acid", "values": [
      {"measurement": "ratio of colonies expressing class III β-tubulin", "setting": "ES cell EB5 [1]; [3]", "result": 19.8, "unit": "%"}
    ]},
    {"substance": "polystyrene sulfonate", "values": [
      {"measurement": "ratio of colonies expressing class III β-tubulin", "setting": "ES cell EB5 [1]; [4]", "result": 48.7, "unit": "%"}
    ]},
    {"substance": "polyvinyl sulfate", "values": [
      {"measurement": "ratio of colonies expressing class III β-tubulin", "setting": "ES cell EB5 [1]; [4]", "result": 54.8, "unit": "%"}
    ]}
  ]
}
